Measurements reported in patent US20110002843A1, “METHOD OF DETECTING MYOCARDIAL DYSFUNCTION IN PATIENTS HAVING A HISTORY OF ASTHMA OR BRONCHOSPASM” (priority 2005, published 2011).

Assay: Pulmonary responses and safety in human subjects with mild, intermittent asthma (single-blind and double-blind parts)
Type: in vivo
Details: for FEV1 (L) Mean % Change from Baseline (SD) / FEV1 (L) Mean (SD) / FVC Mean % Change from Baseline (SD) / FVC Mean (SD) / changes from baseline in mean FEV1, FEV1 (% predicted), FEF25%-75%, FVC / subjects with treatment-emergent AEs / FEF25%-75% Mean % Change from Baseline (SD) / FEF25%-75% Mean (SD) / FEV1 (% predicted) Mean % Change from Baseline (SD) / FEV1 (% predicted) Mean (SD): single-blind
Description: Methodology: The study consisted of 2 parts, a Single-Blind Part and a Double-Blind Part. The dose escalating, Single-Blind Part enrolled subjects with mild, intermittent asthma and consisted of 3 sequentially enrolled dosing cohorts with 8 subjects per cohort, such that Dosing Cohorts 1, 2 and 3 received binodenoson target doses of 0.5 μg/kg, 1.0 μg/kg and 1.5 μg/kg, respectively. All 8 subjects in a dosing cohort must have completed dosing at the assigned dose and a medical review of each cohort must have been acceptable before enrollment in the next cohort began. The Double-Blind Part was initiated only if the medical review of all safety data from the Single-Blind Part was acceptable. In the Double Blind Part, subjects with mild, intermittent asthma were randomly assigned in a 2:1 ratio to receive either binodenoson 1.5 μg/kg (n=40 planned) or placebo control (n=20 planned).
Both study parts were comprised of Screening, Treatment and Follow-Up Visits. The Screening Visit occurred 7 to 14 days before the Treatment Visit and consisted of a physical examination, medical history and application of inclusion and exclusion criteria. Subjects were instructed to measure peak expiratory flow (PEF) and asthma symptoms during a period of at least 7 days prior to the Treatment Visit. Subjects were to continue to meet all Screening eligibility criteria at the Treatment Visit and forced expiratory volume in 1 second (FEV1) was to remain within 80% of predicted for subjects to be eligible for dosing. All subjects enrolled in the Single-Blind Part and subjects randomized to receive binodenoson in the Double-Blind Part received 3 intravenous (IV) injections during the Treatment Visit: (1) placebo; (2) a low, challenge binodenoson dose to detect potential hypersensitivity reactions; and (3) an assigned binodenoson test dose. Subjects randomized to receive placebo in the Double Blind Part received 3 placebo injections. The Follow-Up Visit occurred 2 to 4 days following the Treatment Visit.
Eligible subjects were males or non-pregnant, nonlactating females ≧18 years of age weighing <350 pounds with a medical history of mild, intermittent asthma (as defined in the “Guidelines for the Diagnosis and Management of Asthma” prepared by the National Institutes of Health [NIH]) within 6 months of Screening.
Subjects were not eligible for the study if they had resting sitting systolic blood pressure (SBP)<100 or >140 mmHg, diastolic blood pressure (DBP)<60 or >90 mmHg, pulse rate >95 beats per minute (bpm), or a lower limit FEV1 at rest of <80% of the predicted value at Screening.
Dose and Mode of Administration: A stock solution of binodenoson (25 μg/mL) was administered as a bolus injection over 30 seconds (0.1 μg/kg=0.004 mL/kg of stock solution, 0.5 μg/kg=0.02 mL/kg of stock solution, 1.0 μg/kg=0.04 mL/kg of stock solution and 1.5 μg/kg=0.06 mL/kg of stock solution).
Duration of Treatment: Each subject received three 30-second bolus IV injections separated by ≧90 minutes in both the Single Blind and Double-Blind Parts of the study.
Criteria for Evaluation: The primary safety endpoint was clinically significant bronchoconstriction, defined as a ≧20% decrease in FEV1 from the predrug baseline following binodenoson administration. Other safety assessments included need for rescue medication, regular measurements of pulmonary function (FEV1 [% predicted], forced vital capacity [FVC] and forced expiratory flow during the middle half of the FVC [FEF25%-75%]), vital signs, pulse oximetry, physical examination findings, electrocardiogram (ECG) results, clinical laboratory results and adverse events.
Statistical Methods: All data collected in the study were summarized by treatment (placebo; 0.1 μg/kg binodenoson challenge; or 0.5, 1.0, or 1.5 μg/kg binodenoson) and study Part (Single-Blind or Double-Blind with univariate summaries). Continuous variables were summarized with descriptive statistics (n, mean, median, standard deviation [SD] and minimum and maximum). […]

[1] = Cohort 3, second injection 0.1 μg/kg iv bolus, 90 minutes
[2] = third injection 0.5 μg/kg iv bolus, 5 min
[3] = third injection 0.5 μg/kg iv bolus, 15 min
[4] = third injection 0.5 μg/kg iv bolus, 45 min
[5] = third injection 0.5 μg/kg iv bolus, 90 min
[6] = third injection 1.0 μg/kg iv bolus, 5 min
[7] = third injection 1.0 μg/kg iv bolus, 15 min
[8] = third injection 1.0 μg/kg iv bolus, 45 min
[9] = third injection 1.0 μg/kg iv bolus, 90 min
[10] = third injection 1.5 μg/kg iv bolus, 5 min
[11] = third injection 1.5 μg/kg iv bolus, 15 min
[12] = third injection 1.5 μg/kg iv bolus, 45 min
[13] = third injection 1.5 μg/kg iv bolus, 90 min

SMILES: Nc1nc(N/N=C/C2CCCCC2)nc2c1ncn2[C@@H]1O[C@H](CO)[C@@H](O)[C@H]1O (stereo in doubt) [Binodenoson, 2-{2-[(Cyclohexyl)methylene]hydrazino}adenosine]
- FEV1 (L) Mean % Change from Baseline (SD) [1]: 0.901 (2.441) %
- FEV1 (L) Mean (SD) [1]: 3.343 (0.657) L
- FVC Mean % Change from Baseline (SD) [1]: −0.163 (0.894) %
- FVC Mean (SD) [1]: 4.334 (0.850)
- changes from baseline in mean FEV1, FEV1 (% predicted), FEF25%-75%, FVC (after binodenoson 0.1 μg/kg injection): No clinically significant changes from baseline
- subjects with treatment-emergent AEs (binodenoson 0.1 μg/kg): No subjects experienced treatment-emergent AEs
- subjects with treatment-emergent AEs (third injection 0.5 μg/kg): 25%
- FEF25%-75% Mean % Change from Baseline (SD) [2]: −3.549 (6.717) %
- FEF25%-75% Mean (SD) [2]: 3.111 (0.915)
- FEV1 (% predicted) Mean % Change from Baseline (SD) [2]: −2.3 (3.4) %
- FEV1 (% predicted) Mean (SD) [2]: 92.6 (12.5) % predicted
- FEV1 (L) Mean % Change from Baseline (SD) [2]: −2.327 (3.977) %
- FEV1 (L) Mean (SD) [2]: 3.995 (0.820) L
- FVC Mean % Change from Baseline (SD) [2]: −1.162 (2.708) %
- FVC Mean (SD) [2]: 5.581 (1.151)
- FEF25%-75% Mean % Change from Baseline (SD) [3]: −1.773 (3.375) %
- FEF25%-75% Mean (SD) [3]: 3.169 (0.885)
- FEV1 (% predicted) Mean % Change from Baseline (SD) [3]: −0.9 (2.1) %
- FEV1 (% predicted) Mean (SD) [3]: 94.0 (11.9) % predicted
- FEV1 (L) Mean % Change from Baseline (SD) [3]: −0.967 (2.171) %
- FEV1 (L) Mean (SD) [3]: 4.049 (0.800) L
- FVC Mean % Change from Baseline (SD) [3]: −0.033 (1.645) %
- FVC Mean (SD) [3]: 5.640 (1.130)
- FEF25%-75% Mean % Change from Baseline (SD) [4]: −2.338 (5.471) %
- FEF25%-75% Mean (SD) [4]: 3.158 (0.899)
- FEV1 (% predicted) Mean % Change from Baseline (SD) [4]: −1.5 (2.1) %
- FEV1 (% predicted) Mean (SD) [4]: 93.4 (11.7) % predicted
- FEV1 (L) Mean % Change from Baseline (SD) [4]: −1.455 (2.494) %
- FEV1 (L) Mean (SD) [4]: 4.034 (0.821) L
- FVC Mean % Change from Baseline (SD) [4]: −0.838 (3.371) %
- FVC Mean (SD) [4]: 5.591 (1.122)
- FEF25%-75% Mean % Change from Baseline (SD) [5]: −3.732 (9.304) %
- FEF25%-75% Mean (SD) [5]: 3.106 (0.892)
- FEV1 (% predicted) Mean % Change from Baseline (SD) [5]: −2.0 (3.4) %
- FEV1 (% predicted) Mean (SD) [5]: 92.9 (12.5) % predicted
- FEV1 (L) Mean % Change from Baseline (SD) [5]: −2.365 (3.864) %
- FEV1 (L) Mean (SD) [5]: 4.000 (0.840) L
- FVC Mean % Change from Baseline (SD) [5]: −0.963 (3.579) %
- FVC Mean (SD) [5]: 5.600 (1.196)
- subjects with treatment-emergent AEs (third injection 1.0 μg/kg): 50%
- FEF25%-75% Mean % Change from Baseline (SD) [6]: 2.938 (17.701) %
- FEF25%-75% Mean (SD) [6]: 3.571 (1.546)
- FEV1 (% predicted) Mean % Change from Baseline (SD) [6]: −0.1 (5.7) %
- FEV1 (% predicted) Mean (SD) [6]: 93.5 (11.5) % predicted
- FEV1 (L) Mean % Change from Baseline (SD) [6]: −0.071 (5.830) %
- FEV1 (L) Mean (SD) [6]: 3.889 (0.883) L
- FVC Mean % Change from Baseline (SD) [6]: 0.316 (3.947) %
- FVC Mean (SD) [6]: 5.106 (1.192)
- FEF25%-75% Mean % Change from Baseline (SD) [7]: 1.896 (7.770) %
- FEF25%-75% Mean (SD) [7]: 3.534 (1.364)
- FEV1 (% predicted) Mean % Change from Baseline (SD) [7]: 0.0 (3.8) %
- FEV1 (% predicted) Mean (SD) [7]: 93.6 (13.0) % predicted
- FEV1 (L) Mean % Change from Baseline (SD) [7]: 0.113 (3.892) %
- FEV1 (L) Mean (SD) [7]: 3.899 (0.884) L
- FVC Mean % Change from Baseline (SD) [7]: −0.138 (3.728) %
- FVC Mean (SD) [7]: 5.078 (1.156)
- FEF25%-75% Mean % Change from Baseline (SD) [8]: 7.715 (11.942) %
- FEF25%-75% Mean (SD) [8]: 3.759 (1.554)
- FEV1 (% predicted) Mean % Change from Baseline (SD) [8]: 0.6 (6.3) %
- FEV1 (% predicted) Mean (SD) [8]: 94.3 (16.4) % predicted
- FEV1 (L) Mean % Change from Baseline (SD) [8]: 0.344 (6.156) %
- FEV1 (L) Mean (SD) [8]: 3.926 (1.012) L
- FVC Mean % Change from Baseline (SD) [8]: −1.792 (6.201) %
- FVC Mean (SD) [8]: 5.020 (1.300)
- FEF25%-75% Mean % Change from Baseline (SD) [9]: 9.498 (11.643) %
- FEF25%-75% Mean (SD) [9]: 3.830 (1.595)
- FEV1 (% predicted) Mean % Change from Baseline (SD) [9]: 2.6 (4.5) %
- FEV1 (% predicted) Mean (SD) [9]: 96.3 (15.9) % predicted
- FEV1 (L) Mean % Change from Baseline (SD) [9]: 2.406 (4.249) %
- FEV1 (L) Mean (SD) [9]: 4.005 (0.983) L
- FVC Mean % Change from Baseline (SD) [9]: −0.051 (2.348) %
- FVC Mean (SD) [9]: 5.105 (1.262)
- subjects with treatment-emergent AEs (third injection 1.5 μg/kg): 75%
- FEF25%-75% Mean % Change from Baseline (SD) [10]: 2.411 (12.016) %
- FEF25%-75% Mean (SD) [10]: 2.880 (0.584)
- FEV1 (% predicted) Mean % Change from Baseline (SD) [10]: 0.4 (2.6) %
- FEV1 (% predicted) Mean (SD) [10]: 91.6 (8.1) % predicted
- FEV1 (L) Mean % Change from Baseline (SD) [10]: 0.336 (2.702) %
- FEV1 (L) Mean (SD) [10]: 3.344 (0.610) L
- FVC Mean % Change from Baseline (SD) [10]: 0.031 (2.871) %
- FVC Mean (SD) [10]: 4.334 (0.845)
- FEF25%-75% Mean % Change from Baseline (SD) [11]: 2.110 (5.540) %
- FEF25%-75% Mean (SD) [11]: 2.890 (0.645)
- FEV1 (% predicted) Mean % Change from Baseline (SD) [11]: −0.5 (2.0) %
- FEV1 (% predicted) Mean (SD) [11]: 90.8 (7.8) % predicted
- FEV1 (L) Mean % Change from Baseline (SD) [11]: −0.380 (2.306) %
- FEV1 (L) Mean (SD) [11]: 3.330 (0.666) L
- FVC Mean % Change from Baseline (SD) [11]: −1.335 (2.366) %
- FVC Mean (SD) [11]: 4.281 (0.882)
- FEF25%-75% Mean % Change from Baseline (SD) [12]: −1.475 (6.450) %
- FEF25%-75% Mean (SD) [12]: 2.803 (0.705)
- FEV1 (% predicted) Mean % Change from Baseline (SD) [12]: −0.4 (2.3) %
- FEV1 (% predicted) Mean (SD) [12]: 90.9 (7.9) % predicted
- FEV1 (L) Mean % Change from Baseline (SD) [12]: −0.439 (2.820) %
- FEV1 (L) Mean (SD) [12]: 3.331 (0.682) L
- FVC Mean % Change from Baseline (SD) [12]: −0.179 (2.938) %
- FVC Mean (SD) [12]: 4.326 (0.872)
- FEF25%-75% Mean % Change from Baseline (SD) [13]: 0.469 (2.514) %
- FEF25%-75% Mean (SD) [13]: 2.851 (0.654)
- FEV1 (% predicted) Mean % Change from Baseline (SD) [13]: 0.6 (1.3) %
- FEV1 (% predicted) Mean (SD) [13]: 91.9 (7.4) % predicted
- FEV1 (L) Mean % Change from Baseline (SD) [13]: 0.617 (1.762) %
- FEV1 (L) Mean (SD) [13]: 3.365 (0.680) L
- FVC Mean % Change from Baseline (SD) [13]: 0.537 (2.460) %
- FVC Mean (SD) [13]: 4.358 (0.878)
- changes from baseline in mean FEV1, FEV1 (% predicted), FEF25%-75%, FVC (third injection (0.5, 1.0, 1.5 μg/kg)): no clinically significant changes from baseline
- deaths, serious AEs, premature discontinuations due to AEs (whole study): no deaths, serious AEs, or premature discontinuations due to AEs
- laboratory evaluations, ECG, pulse oximetry (whole study): No clinically meaningful results
